Structures are written as SMILES.

Sequence of TNFα (P01375 77-233 limits assumed): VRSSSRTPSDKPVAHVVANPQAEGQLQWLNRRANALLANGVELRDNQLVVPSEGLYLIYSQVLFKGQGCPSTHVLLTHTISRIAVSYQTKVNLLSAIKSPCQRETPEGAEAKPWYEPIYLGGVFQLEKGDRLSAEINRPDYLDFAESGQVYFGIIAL

This experiment addresses TNFα (Homo sapiens, UniProt P01375). In words: TNFα Induced HEK Blue Cellular Assay. Format: cell-based. To be noted: HEK Blue TNFα reporter cells, TNFα 100 pg/ml, 24 hrs at 37° C., secreted alkaline phosphatase (QUANTI-Blue) read at 620 nm; read-out: IC50 value. The protocol:
TNFα Induced HEK Blue Cellular Assay
Test articles were diluted in DMSO and serially diluted into 384 well assay plate (Corning 3765), at final concentrations ranging from […] to 0.5 nM. HEK Blue™ TNFα reporter cells were added at a final density of 10,000 cell per well in assay media [DMEM (Gibco, cat #21063-029), 10% fetal bovine serum (ExcelBio, cat #FND500), 1% Penicillin-Streptomycin (Solarbio, cat #P1400-100]. TNFα (R&D 210-TA-020/CF) was then added to the assay plate at a final concentration of 100 pg/ml. This plate was then incubated for 24 hrs at 37° C. and 5% CO2. Secreted alkaline phosphatase expression was then measured using QUANTI-Blue™ (Invivogen), according to manufacturer instructions and read on an Envision microplate reader at 620 nm.
Inhibition data for test compound over a range of concentration was plotted as percentage inhibition of the test compound (100%=maximum inhibition). IC50 values were determined after correcting for background [(sample read−mean of low control)/(mean of high control−mean of low control)] where by the low control is DMSO without stimulation and high control is DMSO with stimulation. The IC50 is defined as the concentration of test compound which produces 50% inhibition and was quantified using the 4 parameter logistic equation to fit the data.
On to `[2H]C([2H])([2H])N1C(=O)c2cccc(OC(F)F)c2[C@H]2C[C@@H]1c1nc3ccc(-c4ccc(C(C)P(C)(C)=O)cc4)cc3n12` (single isomer, unassigned) [Example 85, (7R,14R)-1-(difluoromethoxy)-11-(4-((S or R)-1-(dimethylphosphoryl)ethyl)phenyl)-6-(methyl-d3)-6,7-dihydro-7,14-methanobenzo[f]benzo[4,5]imidazo[1,2-a][1,4]diazocin-5(14H)-one], for which the IC50 is under 100 nM. As for `[2H]C([2H])([2H])N1C(=O)c2cccc(OC(F)F)c2[C@H]2C[C@@H]1c1nc3ccc(-c4ccc(C(C)P(C)(C)=O)cc4)cc3n12` (single isomer, unassigned) [Example 86, (7R,14R)-1-(difluoromethoxy)-11-(4-((R or S)-1-(dimethylphosphoryl)ethyl)phenyl)-6-(methyl-d3)-6,7-dihydro-7,14-methanobenzo[f]benzo[4,5]imidazo[1,2-a][1,4]diazocin-5(14H)-one], the IC50 is under 100 nM.

As for `[2H]C([2H])([2H])N1C(=O)c2cccc(OC(F)F)c2[C@H]2C[C@@H]1c1nc3ccc(-c4ccc(C(C)P(C)(C)=O)c(F)c4)cc3n12` (single isomer, unassigned) [Example 99, (7R,14R)-1-(difluoromethoxy)-11-(4-((S or R)-1-(dimethylphosphoryl)ethyl)-3-fluorophenyl)-6-(methyl-d3)-6,7-dihydro-7,14-methanobenzo[f]benzo[4,5]imidazo[1,2-a][1,4]diazocin-5(14H)-one], the IC50 is under 100 nM. As to `[2H]C([2H])([2H])N1C(=O)c2cccc(OC(F)F)c2[C@H]2C[C@@H]1c1nc3ccc(-c4ccc(C(C)P(C)(C)=O)c(F)c4)cc3n12` (single isomer, unassigned) [Example 100, (7R,14R)-1-(difluoromethoxy)-11-(4-((R or S)-1-(dimethylphosphoryl)ethyl)-3-fluorophenyl)-6-(methyl-d3)-6,7-dihydro-7,14-methanobenzo[f]benzo[4,5]imidazo[1,2-a][1,4]diazocin-5(14H)-one], the IC50 was under 100 nM. Turning to `[2H]C([2H])([2H])N1C(=O)c2cccc(OC(F)F)c2[C@H]2C[C@@H]1c1nc3ccc(-c4cc(F)c(C(C)P(C)(C)=O)c(F)c4)cc3n12` (single isomer, unassigned) [Example 109, (7R,14R)-1-(difluoromethoxy)-11-(4-((R or S)-1-(dimethylphosphoryl)ethyl)-3,5-difluorophenyl)-6-(methyl-d3)-6,7-dihydro-7,14-methanobenzo[f]benzo[4,5]imidazo[1,2-a][1,4]diazocin-5(14H)-one], the IC50 is under 100 nM. The figure for `[2H]C([2H])([2H])N1C(=O)c2cccc(OC(F)F)c2[C@H]2C[C@@H]1c1nc3ccc(-c4ccc(C(C)(O)P(C)(C)=O)cc4)cc3n12` (single isomer, unassigned) [Example 110, (7R,14R)-1-(difluoromethoxy)-11-(4-((S or R)-1-(dimethylphosphoryl)-1-hydroxyethyl)phenyl)-6-(methyl-d3)-6,7-dihydro-7,14-methanobenzo[f]benzo[4,5]imidazo[1,2-a][1,4]diazocin-5(14H)-one] is under 100 nM.

Turning to `[2H]C([2H])([2H])N1C(=O)c2cccc(OC(F)F)c2[C@H]2C[C@@H]1c1nc3ccc(-c4ccc([C@@](C)(O)P(C)(C)=O)cc4)cc3n12` (single isomer, unassigned) [Example 111, (7R,14R)-1-(difluoromethoxy)-11-(4-((R or S)-1-(dimethylphosphoryl)-1-hydroxyethyl)phenyl)-6-(methyl-d3)-6,7-dihydro-7,14-methanobenzo[f]benzo[4,5]imidazo[1,2-a][1,4]diazocin-5(14H)-one], the IC50 is under 100 nM. On to `[2H]C([2H])([2H])N1C(=O)c2cccc(OC(F)F)c2[C@H]2C[C@@H]1c1nc3ccc(-c4cc(F)c(C(C)P(C)(C)=O)c(F)c4)cc3n12` (single isomer, unassigned) [Example 112, (7R,14R)-1-(difluoromethoxy)-11-(4-((S or R)-1-(dimethylphosphoryl)ethyl)-3,5-difluorophenyl)-6-(methyl-d3)-6,7-dihydro-7,14-methanobenzo[f]benzo[4,5]imidazo[1,2-a][1,4]diazocin-5(14H)-one], for which the IC50 was under 100 nM.

Consider `[2H]C([2H])([2H])N1C(=O)c2cccc(OC(F)F)c2[C@H]2C[C@@H]1c1nc3ccc(-c4ccc([C@@H](C)P(C)(C)=O)c(F)c4C)cc3n12` (single isomer, unassigned) [Example 113, (7R,14R)-1-(difluoromethoxy)-11-(4-((R or S)-1-(dimethylphosphoryl)ethyl)-3-fluoro-2-methylphenyl)-6-(methyl-d3)-6,7-dihydro-7,14-methanobenzo[f]benzo[4,5]imidazo[1,2-a][1,4]diazocin-5(14H)-one], for which the IC50 is under 100 nM. Regarding `[2H]C([2H])([2H])N1C(=O)c2cccc(OC(F)F)c2[C@H]2C[C@@H]1c1nc3ccc(-c4ccc([C@H](C)P(C)(C)=O)c(F)c4C)cc3n12` (single isomer, unassigned) [Example 114, (7R,14R)-1-(difluoromethoxy)-11-(4-((S or R)-1-(dimethylphosphoryl)ethyl)-3-fluoro-2-methylphenyl)-6-(methyl-d3)-6,7-dihydro-7,14-methanobenzo[f]benzo[4,5]imidazo[1,2-a][1,4]diazocin-5(14H)-one], the IC50 is under 100 nM.

For `[2H]C([2H])([2H])N1C(=O)c2cccc(OC(F)F)c2[C@H]2C[C@@H]1c1nc3ccc(-c4cc(F)c(C(C)P(C)(C)=O)cc4C)cc3n12` (single isomer, unassigned) [Example 118, (7R,14R)-1-(difluoromethoxy)-11-(4-((R or S)-1-(dimethylphosphoryl)ethyl)-5-fluoro-2-methylphenyl)-6-(methyl-d3)-6,7-dihydro-7,14-methanobenzo[f]benzo[4,5]imidazo[1,2-a][1,4]diazocin-5(14H)-one], the IC50 is under 100 nM. Take `[2H]C([2H])([2H])N1C(=O)c2cccc(OC(F)F)c2[C@H]2C[C@@H]1c1nc3ccc(-c4cc(F)c(C(C)P(C)(C)=O)cc4C)cc3n12` (single isomer, unassigned) [Example 119, (7R,14R)-1-(difluoromethoxy)-11-(4-((S or R)-1-(dimethylphosphoryl)ethyl)-5-fluoro-2-methylphenyl)-6-(methyl-d3)-6,7-dihydro-7,14-methanobenzo[f]benzo[4,5]imidazo[1,2-a][1,4]diazocin-5(14H)-one]: the half-maximal inhibitory concentration (IC50) is under 100 nM. In the case of `CP(C)(=O)c1ncc(-c2ccc3nc4n(c3c2)[C@@H]2C[C@H]4NC(=O)c3cccc(OC(F)F)c32)cn1` [Example 1, (7R,14R)-1-(difluoromethoxy)-11-(2-(dimethylphosphoryl)pyrimidin-5-yl)-6,7-dihydro-7,14-methanobenzo[f]benzo[4,5]imidazo[1,2-a][1,4]diazocin-5(14H)-one], the IC50 was 100 to 1000 nM. For the molecule `CN1C(=O)c2cccc(OC(F)F)c2[C@H]2C[C@@H]1c1nc3ccc(-c4ccc(P(C)(C)=O)nc4)cc3n12` [Example 2, (7R,14R)-1-(difluoromethoxy)-11-(6-(dimethylphosphoryl)pyridin-3-yl)-6-methyl-6,7-dihydro-7,14-methanobenzo[f]benzo[4,5]imidazo[1,2-a][1,4]diazocin-5(14H)-one], the IC50 is under 100 nM. As to `CP(C)(=O)c1ccc(-c2ccc3nc4n(c3c2)[C@@H]2C[C@H]4NC(=O)c3cccc(OC(F)F)c32)cn1` [Example 3, (7R,14R)-1-(difluoromethoxy)-11-(6-(dimethylphosphoryl)pyridin-3-yl)-6,7-dihydro-7,14-methanobenzo[f]benzo[4,5]imidazo[1,2-a][1,4]diazocin-5(14H)-one], the IC50 is 100 to 1000 nM. For `CN1C(=O)c2cccc(OC(F)F)c2[C@H]2C[C@@H]1c1nc3ccc(-c4cnc(P(C)(C)=O)c(F)c4)cc3n12` [Example 4, (7R,14R)-1-(difluoromethoxy)-11-(6-(dimethylphosphoryl)-5-fluoropyridin-3-yl)-6-methyl-6,7-dihydro-7,14-methanobenzo[f]benzo[4,5]imidazo[1,2-a][1,4]diazocin-5(14H)-one], the concentration for half-maximal inhibition (IC50) is under 100 nM. On to `CN1C(=O)c2cccc(OC(F)F)c2[C@H]2C[C@@H]1c1nc3ccc(-c4ccc(P5(=O)CCCC5)nc4)cc3n12` [Example 5, (1R,11R)-18-(difluoromethoxy)-12-methyl-5-[6-(1-oxo-1lambda5-phospholan-1-yl)pyridin-3-yl]-2,9,12-triazapentacyclo[9.8.1.0^{2,10}.0^{3,8}.0^{14,19}]icosa-3(8),4,6,9,14(19),15,17-heptaen-13-one], for which the IC50 was under 100 nM. On to `CN1C(=O)c2cccc(OC(F)F)c2[C@H]2C[C@@H]1c1nc3ccc(-c4ccc(P5(=O)CCOCC5)nc4)cc3n12` [Example 6, (1R,11R)-18-(difluoromethoxy)-12-methyl-5-[6-(4-oxo-1,4lambda5-oxaphosphinan-4-yl)pyridin-3-yl]-2,9,12-triazapentacyclo[9.8.1.0^{2,10}.0^{3,8}.0^{14,19}]icosa-3(8),4,6,9,14(19),15,17-heptaen-13-one], for which the IC50 is under 100 nM.
